In article PMC9916685, “Discovery of Small Molecule COX-1 and Akt Inhibitors as Anti-NSCLC Agents Endowed with Anti-Inflammatory Action” (International Journal of Molecular Sciences, 2023):

Tests used:
COX-2 [1] = conditions: cited from earlier work
COX-1 [2] = conditions: cited from earlier work
Akt [3] = test system: Akt; parameters: method as in doi:10.2174/1570180817999200618163507; conditions: 5RP7 H-ras oncogene transformed rat embryonic fibroblast cell line; cited from earlier work
COX-2 [4] = biological target: T1, COX-2 (Ovis aries, UniProt P79208); test: COX (ovine) colorimetric inhibitor screening assay, COX-2; format: biochemical; conditions: ovine COX-2, colorimetric, triplicate, mean ± SD
T1 construct: purchased Cayman
T1 sequence (P79208 17-603): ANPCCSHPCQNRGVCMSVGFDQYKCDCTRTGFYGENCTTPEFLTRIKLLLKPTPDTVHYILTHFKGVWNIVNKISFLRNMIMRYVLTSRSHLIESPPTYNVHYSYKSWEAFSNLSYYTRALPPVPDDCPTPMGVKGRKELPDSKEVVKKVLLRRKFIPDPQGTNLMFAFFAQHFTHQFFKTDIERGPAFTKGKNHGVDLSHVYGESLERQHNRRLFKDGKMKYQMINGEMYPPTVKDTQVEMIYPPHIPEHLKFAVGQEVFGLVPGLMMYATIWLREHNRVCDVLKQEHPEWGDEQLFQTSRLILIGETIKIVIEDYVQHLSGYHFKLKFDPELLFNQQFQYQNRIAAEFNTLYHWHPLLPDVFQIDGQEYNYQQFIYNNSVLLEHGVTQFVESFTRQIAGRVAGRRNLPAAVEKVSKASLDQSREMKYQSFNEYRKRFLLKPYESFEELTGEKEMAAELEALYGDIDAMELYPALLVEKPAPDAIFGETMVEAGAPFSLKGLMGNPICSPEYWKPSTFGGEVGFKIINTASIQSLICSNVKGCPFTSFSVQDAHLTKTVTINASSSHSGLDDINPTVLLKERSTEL
Method: (§1) COX (ovine) Colorimetric Inhibitor Screening Assay (Cayman, Ann Arbor, MI, USA) was conducted to detect the peroxidase component of COX-1 and COX-2 according to the manufacturer’s instructions. The assay was performed in triplicate. Half maximal inhibitory concentration (IC50) data (µM) were expressed as mean ± SD.

myeloperoxidase (MPO) = test: LPS-induced sepsis model, serum MPO levels; format: in vivo, Sprague Dawley rats; conditions: for change of MPO activity compared to the LPS group: in words, LPS-induced sepsis, rats; for MPO (U/L): rat serum, 24 h after LPS 1 mg/kg i.p., 3b, 4a 10 mg/kg/day, indomethacin 5 mg/kg by gastric intubation for six days, mean ± SD, n = 8
Method: (§2) Male albino Sprague Dawley rats (~250–300 g) were procured from the Medical and Surgical Experimental Animals Application and Research Center of Eskisehir Osmangazi University (ESOGU). In the animal house, the rats were housed in stainless steel cages under standard atmospheric conditions at 22 ± 1 °C and exposed to 12 h/12 h light/dark cycle. Food and water were given ad libitum. All experiments and protocols reported in this work were approved by ESOGU Animal Experiments Local Ethics Committee (10 December 2018/700).
(§3) Compounds 3b, 4a, and indomethacin (Sigma-Aldrich, St. Louis, MO, USA) were dissolved in 5% dimethyl sulfoxide (DMSO) and then diluted. The final DMSO concentration in the solution was 0.5% (v/v). The agents were administered by gastric intubation.
(§4) Rats were randomly divided into five groups (n = 8) as control group, LPS group, test groups (3b and 4a), and reference group. 0.5% DMSO was used as control solution for LPS group. Indomethacin (5 mg/kg) was used as a reference agent. Control group (Group I) was fed with basal rat chow throughout the experimental period. LPS group (Group II) was fed with basal rat chow for six days (only 0.5% DMSO was administered by gastric intubation) and LPS was injected intraperitoneally in 0.9% sodium chloride solution only once on the 7th day. Groups III, IV, and V were fed with basal rat chow and compound 3b (10 mg/kg/day), compound 4a (10 mg/kg/day), and indomethacin were administered, respectively, by gastric intubation for six days. Then, LPS was injected intraperitoneally in 0.9% sodium chloride solution only once on the 7th day for three groups as well. After 24 h of LPS injection, all rats were sacrificed by ketamine (80 mg/kg) ve xylazine (10 mg/kg) anesthesia via intraperitoneal route. Blood samples were collected via cardiac puncture in tubes containing gel for obtaining serum.
Suzuki’s assay was performed with slight modifications. The rate of MPO-catalyzed oxidation of 3,3′,5,5′-tetramethylbenzidine (TMB) was followed by recording the absorbance increase at 655 nm for 5 min. Taking into account the linear phase of the reaction, the absorbance change was measured per minute. The enzyme activity was expressed as the amount of the enzyme producing one absorbance change per minute under assay conditions.

A549 cells = test: Annexin V-FITC/PI flow cytometry-based apoptosis detection; conditions: A549, 24 h; for percentage of A549 cells undergoing apoptosis (early and late): sum of early and late
[5] = test system: A549 human lung adenocarcinoma cells; test: MTT cytotoxicity assay, A549 cells; format: cell-based; conditions: Homo sapiens, mean ± SD
Method: (§5) A549 human lung adenocarcinoma and L929 mouse fibroblast cell lines were obtained from American Type Culture Collection (ATCC) (Manassas, VA, USA). Both cell lines were cultured, and drug treatments were carried out as previously reported.
(§6) MTT assay was conducted as previously explained in the literature with small modifications. Cisplatin was used as a positive control. The assay was performed in triplicate. IC50 data (µM) were expressed as mean ± SD.

[6] = LPS-induced sepsis model, serum ALT and AST levels; format: in vivo, Sprague Dawley rats; conditions: rat serum, 24 h after LPS; 3b, 4a 10 mg/kg/day, indomethacin 5 mg/kg by gastric intubation six days; mean ± SD, n = 8
Method: as §2, §3, §4
Serum ALT and AST levels were determined using enzyme-based Roche Diagnostics kit in Roche Modular Systems analyzer by photometric assay based on the manufacturer’s instructions. The other serum samples were stored at −80 °C (Thermo Electron, Waltham, MA, USA) for subsequent analyses of MPO and NO levels.

Akt [7] = test: Akt Colorimetric In-Cell ELISA in A549 cells; format: cell-based, human; conditions: 24 h, mean ± SD, read-out: Akt inhibition IC50 in A549 cells
Method: The assay was performed in triplicate. IC50 data (µM) were expressed as mean ± SD.

COX-1 [8] = biological target: T2, COX-1 (Ovis aries, UniProt P05979); test: COX (ovine) colorimetric inhibitor screening assay, COX-1; format: biochemical; conditions: for IC50: ovine COX-1, colorimetric, triplicate, mean ± SD; for SI (IC50 for COX-1/IC50 for COX-2): selectivity index
T2 construct: purchased Cayman
T2 sequence (P05979 25-600): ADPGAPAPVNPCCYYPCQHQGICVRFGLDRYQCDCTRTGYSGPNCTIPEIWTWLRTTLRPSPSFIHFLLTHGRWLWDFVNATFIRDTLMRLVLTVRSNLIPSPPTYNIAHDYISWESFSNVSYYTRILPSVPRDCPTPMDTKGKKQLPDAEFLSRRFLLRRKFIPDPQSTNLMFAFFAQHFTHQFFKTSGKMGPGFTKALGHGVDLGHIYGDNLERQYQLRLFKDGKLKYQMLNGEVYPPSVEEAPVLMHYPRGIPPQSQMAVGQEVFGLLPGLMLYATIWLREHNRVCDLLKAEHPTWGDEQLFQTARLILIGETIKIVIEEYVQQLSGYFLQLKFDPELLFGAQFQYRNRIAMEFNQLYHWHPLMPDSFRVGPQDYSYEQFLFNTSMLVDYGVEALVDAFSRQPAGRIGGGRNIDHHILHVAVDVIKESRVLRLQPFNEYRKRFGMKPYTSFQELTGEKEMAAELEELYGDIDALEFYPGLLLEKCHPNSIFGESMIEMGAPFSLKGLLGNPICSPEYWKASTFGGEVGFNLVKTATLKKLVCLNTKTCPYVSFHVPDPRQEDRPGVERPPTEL
Method: as §1

nitric oxide (NO) = test: LPS-induced sepsis model, serum NO levels; format: in vivo, Sprague Dawley rats; conditions: rat serum, 24 h after LPS; 3b, 4a 10 mg/kg/day, indomethacin 5 mg/kg by gastric intubation six days; n = 8
Method: as §2, §3, §4
Nitrate and nitrite, which represent the best index of the entire NO production, are the stable end products of NO in vivo. Nitrate in serum was assayed by a slight modification of the Cd-reduction method as reported by Cortas and Wakid.

[9] = test system: L929 mouse fibroblast (normal) cells; test: MTT cytotoxicity assay, L929 normal cells; format: cell-based; conditions: for IC50: MTT, L929 mouse fibroblast cells, mean ± SD; for cytotoxicity against L929 cells at effective concentrations: in words, at concentrations effective for COX-1 inhibition
Method: as §5, §6

SMILES	IC50 (COX-2 [4]) [µM]	change of MPO activity compared to the LPS group (myeloperoxidase (MPO))	MPO (U/L) (myeloperoxidase (MPO))	Early Apoptosis (%) (A549 cells; compound at IC50/2)	Late Apoptosis (%) (A549 cells; compound at IC50/2)	Necrosis (%) (A549 cells; compound at IC50/2)	IC50 [5] [µM]	ALT (U/L) [6] [U/L]	AST (U/L) [6] [U/L]	IC50 (Akt [7]) [µM]	IC50 (COX-1 [8]) [µM]	SI (IC50 for COX-1/IC50 for COX-2) (COX-1 [8])	melting point [°C]	NO level, 25% Percentile (nitric oxide (NO)) [µmol/L]	NO level, 75% Percentile (nitric oxide (NO)) [µmol/L]	NO level, Median (nitric oxide (NO)) [µmol/L]	IC50 [9] [µM]	cytotoxicity against L929 cells at effective concentrations [9]	further results
O=[N+]([O-])c1ccc(Oc2ccc(C=NNC(=S)Nc3ccc(S(=O)(=O)N4CCCCC4)cc3)cc2)cc1 [4-[4-(piperidin-1-ylsulfonyl)phenyl]-1-[4-(4-nitrophenoxy)benzylidene]thiosemicarbazide]	–	–	–	–	–	–	–	–	–	–	–	–	–	–	–	–	–	–	IC50 (COX-2 [1]): 12.6 µM; IC50 (COX-1 [2]): 13.4 µM
COc1ccc(-c2ccnc(SCC(=O)NN=Cc3ccccc3)n2)cc1 [N′-benzylidene-2-[(4-(4-methoxyphenyl)pyrimidin-2-yl)thio]acetohydrazide]	–	–	–	–	–	–	–	–	–	–	–	–	–	–	–	–	–	–	inhibition of Akt IC50 (Akt [3]): 0.50 µg/mL
O=C(Cc1c[nH]c2ccccc12)NN=Cc1ccc(N2CCOCC2)cc1 [Compound 3b, 2-(1H-Indol-3-yl)-N′-(4-morpholinobenzylidene)acetohydrazide]	71 ± 1.41	slightly decreased	1.50 ± 0.81	5.89	5.78	0.36	89.7 ± 10.8	50.25 ± 21.86	114.90 ± 22.04	32.5 ± 4.95	8.9 ± 0.14	0.13	306 to 307	0.316	2.772	0.667	177 ± 5.77	did not show cytotoxicity	Early Apoptosis (%) (A549 cells; compound at IC50): 6.84%; Late Apoptosis (%) (A549 cells; compound at IC50): 6.01%; Necrosis (%) (A549 cells; compound at IC50): 0.48%; percentage of A549 cells undergoing apoptosis (early and late) (A549 cells; compound at IC50/2): 11.67%; percentage of A549 cells undergoing apoptosis (early and late) (A549 cells; compound at IC50): 12.85%
N#Cc1ccc(C(=O)C=Cc2c[nH]c3ccc(Br)cc23)cc1 [3-(5-bromo-1H-indol-3-yl)-1-(4-cyanophenyl)prop-2-en-1-one]	–	–	–	–	–	–	–	–	–	–	–	–	–	–	–	–	–	–	COX-2 IC50 (COX-2 [1]): 9.50 µg/mL; COX-1 IC50 (COX-1 [2]): 8.10 µg/mL
O=C(Cc1c[nH]c2ccccc12)NNC(=S)Nc1ccc(Br)cc1 [Compound 4a, 4-(4-Bromophenyl)-1-[2-(1H-indol-3-yl)acetyl]thiosemicarbazide]	76.5 ± 6.36	significantly decreased	0.84 ± 0.26	7.07	6.62	0.60	179 ± 77.6	48.29 ± 26.88	132.30 ± 37.06	45.3 ± 6.51	10 ± 0.13	0.13	187 to 189	1.369	4.0	2.509	84 ± 19.7	did not show cytotoxicity	Early Apoptosis (%) (A549 cells; compound at IC50/4): 7.34%; Late Apoptosis (%) (A549 cells; compound at IC50/4): 5.19%; Necrosis (%) (A549 cells; compound at IC50/4): 0.37%
